Where “and” joins values, the source holds several entries; their conditions need not be identical. Equal entries are not always repeated.
Key:
KRAS G13D = KRAS G13D (Homo sapiens (Human), UniProt P01116+P62937, G13D); assay: Ras-Raf (BRAF RBD) disruption / FRET / MOA assay, KRAS G13D; type: biochemical; settings: read-out: IC50* KRAS G13D FRET data
Protocol: (§1) The purpose of this biochemical assay is to measure the ability of test compounds to facilitate ternary complex formation between a nucleotide-loaded Ras isoform and cyclophilin A; the resulting ternary complex disrupts binding to a BRAF^RBD construct, inhibiting Ras signaling through a RAF effector.
(§2) Compound is present in plate wells as a 10-point 3-fold dilution series starting at a final concentration of 30 μM. After incubation at 25° C. for 3 hours, a mixture of Anti-His Eu-W1024 and anti-GST allophycocyanin is then added to assay sample wells at final concentrations of 10 nM and 50 nM, respectively, and the reaction incubated for an additional 1.5 hours. […] Compounds that facilitate disruption of a Ras:RAF complex are identified as those eliciting a decrease in the TR-FRET ratio relative to DMSO control wells.
(§3) This protocol may also be executed substituting other Ras proteins or nucleotides.
(§4) The purpose of this biochemical assay was to measure the ability of test compounds to facilitate ternary complex formation between a nucleotide-loaded K-Ras isoform and Cyclophilin A; the resulting ternary complex disrupts binding to a BRAF^RBD construct, inhibiting K-Ras signaling through a RAF effector. Data is reported as IC50 values.
as §2, with “Compound was” for “Compound is”, “allophycocyanin was” for “allophycocyanin is”, “a K-Ras:RAF” for “a Ras:RAF”, “complex were” for “complex are”

KRAS WT = KRAS WT (Homo sapiens (Human), UniProt P01116+P62937); assay: Ras-Raf (BRAF RBD) disruption / FRET / MOA assay, KRAS WT; type: biochemical; settings: read-out: IC50* KRAS WT FRET data
Protocol: as §1, §2, §3, §4
as §2, with “Compound was” for “Compound is”, “allophycocyanin was” for “allophycocyanin is”, “a K-Ras:RAF” for “a Ras:RAF”, “complex were” for “complex are”

K-Ras G12C = K-Ras G12C (Homo sapiens (Human), UniProt P01116+P62937, G12C); assay: Ras-Raf (BRAF RBD) disruption / FRET / MOA assay, KRAS G12C; type: biochemical; settings: KRAS G12C; Ras-Raf disruption/FRET/MOA assay; read-out: IC50* KRAS G12C FRET data
Outline: (§5)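 Ternary complex formation (Ras–compound–cyclophilin A) displacing BRAF RBD, monitored by TR-FRET. Three hours at 25° C with compound (top 30 μM final), then 1.5 h with the labelled antibodies. Lower ratio than DMSO indicates disruption; IC50 reported.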

KRAS G12V = KRAS G12V (Homo sapiens (Human), UniProt P01116+P62937, G12V); assay: Ras-Raf (BRAF RBD) disruption / FRET / MOA assay, KRAS G12V; type: biochemical; settings: read-out: IC50* KRAS G12V FRET data
Outline: as §5

KRAS G12S = KRAS G12S (Homo sapiens (Human), UniProt P01116+P62937, G12S); assay: Ras-Raf (BRAF RBD) disruption / FRET / MOA assay, KRAS G12S; type: biochemical; settings: Ras-Raf disruption/FRET/MOA assay; class symbols; read-out: KRAS G12S FRET data IC50
Outline: as §5

NRAS G12C = NRAS G12C (Homo sapiens (Human), UniProt P01111+P62937, G12C); assay: Ras-Raf (BRAF RBD) disruption / FRET / MOA assay, NRAS G12C; type: biochemical; settings: read-out: IC50* NRAS G12C FRET data
Protocol: as §1, §2
This protocol may also be executed substituting other Ras proteins or nucleotides. […]

KRAS G12D = KRAS G12D (Homo sapiens (Human), UniProt P01116+P62937, G12D); assay: Ras-Raf (BRAF RBD) disruption / FRET / MOA assay, KRAS G12D; type: biochemical; settings: Ras-Raf disruption/FRET/MOA assay; class symbols; read-out: KRAS G12D FRET data IC50
Outline: as §5

[1] = system: NCI-H358 cells (K-Ras G12C); assay: Potency assay: pERK in NCI-H358 cells; type: cell-based, human; settings: Homo sapiens, NCI-H358; H358 KRAS G12C; read-out: pERK EC50
Outline: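 4 h cpd, 37 °C; 10-pt 3-fold series, 10 mM DMSO top stock, duplicates. Readout pERK: AlphaLISA SureFire Ultra or In-Cell Western (IR-800CW secondary, DRAQ5 DNA stain). IC50, 4-PL fit vs log conc.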

K-Ras G13C = K-Ras G13C (Homo sapiens (Human), UniProt P01116+P62937, G13C); assay: Ras-Raf (BRAF RBD) disruption / FRET / MOA assay, KRAS G13C; type: biochemical; settings: KRAS G13C; Ras-Raf disruption/FRET/MOA assay; read-out: IC50* KRAS G13C FRET data
Protocol: as §1, §2, §3, §4
as §2, with “Compound was” for “Compound is”, “allophycocyanin was” for “allophycocyanin is”, “a K-Ras:RAF” for “a Ras:RAF”, “complex were” for “complex are”

Sequence of KRAS WT (P01116-2 other isoform, or with tags, fused parts or gaps): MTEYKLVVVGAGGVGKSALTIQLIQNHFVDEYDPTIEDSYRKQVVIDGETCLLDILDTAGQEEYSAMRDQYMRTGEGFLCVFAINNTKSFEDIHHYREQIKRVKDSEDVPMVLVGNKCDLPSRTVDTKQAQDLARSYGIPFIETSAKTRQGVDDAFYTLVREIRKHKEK
Sequence of KRAS WT (P62937 whole entry): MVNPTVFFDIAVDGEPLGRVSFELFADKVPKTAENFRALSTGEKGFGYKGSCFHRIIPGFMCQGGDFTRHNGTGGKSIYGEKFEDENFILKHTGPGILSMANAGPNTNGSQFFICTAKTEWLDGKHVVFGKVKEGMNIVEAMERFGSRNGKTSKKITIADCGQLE
Sequence of KRAS G13D (P01116-2 other isoform, or with tags, fused parts or gaps G13D): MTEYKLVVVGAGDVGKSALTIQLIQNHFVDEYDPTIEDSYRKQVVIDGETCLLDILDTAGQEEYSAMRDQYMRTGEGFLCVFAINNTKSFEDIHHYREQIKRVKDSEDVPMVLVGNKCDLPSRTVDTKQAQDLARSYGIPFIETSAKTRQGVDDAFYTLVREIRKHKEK
Sequence of KRAS G13D (P62937 whole entry, canonical isoform): as the sequence (P62937 whole entry) above
Sequence of KRAS G12V (P01116-2 other isoform, or with tags, fused parts or gaps G12V): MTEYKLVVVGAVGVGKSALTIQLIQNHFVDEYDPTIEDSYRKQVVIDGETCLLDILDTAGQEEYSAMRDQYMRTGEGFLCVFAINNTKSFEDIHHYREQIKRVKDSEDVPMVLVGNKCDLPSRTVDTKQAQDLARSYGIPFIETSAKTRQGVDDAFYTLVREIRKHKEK
Sequence of KRAS G12V (P62937 whole entry): as the sequence (P62937 whole entry) above
Sequence of K-Ras G12C (P01116-2 other isoform, or with tags, fused parts or gaps G12C): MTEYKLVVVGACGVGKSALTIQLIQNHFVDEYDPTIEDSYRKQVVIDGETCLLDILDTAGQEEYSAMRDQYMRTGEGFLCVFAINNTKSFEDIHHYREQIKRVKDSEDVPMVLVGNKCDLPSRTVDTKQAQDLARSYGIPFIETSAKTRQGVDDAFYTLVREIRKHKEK
Sequence of K-Ras G12C (P62937 whole entry): as the sequence (P62937 whole entry) above
Sequence of NRAS G12C (P01111 whole entry G12C): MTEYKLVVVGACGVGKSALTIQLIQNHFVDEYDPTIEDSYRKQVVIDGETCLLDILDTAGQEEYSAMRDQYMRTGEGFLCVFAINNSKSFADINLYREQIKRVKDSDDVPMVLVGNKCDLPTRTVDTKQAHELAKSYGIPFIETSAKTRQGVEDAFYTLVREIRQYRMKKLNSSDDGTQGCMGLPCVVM
Sequence of NRAS G12C (P62937 whole entry): as the sequence (P62937 whole entry) above
Sequence of KRAS G12S (P01116-2 other isoform, or with tags, fused parts or gaps G12S): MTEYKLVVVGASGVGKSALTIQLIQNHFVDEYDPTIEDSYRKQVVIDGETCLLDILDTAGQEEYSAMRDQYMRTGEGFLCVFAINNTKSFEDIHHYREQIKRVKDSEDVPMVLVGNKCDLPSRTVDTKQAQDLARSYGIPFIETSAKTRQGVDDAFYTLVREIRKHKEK
Sequence of KRAS G12S (P62937 whole entry): as the sequence (P62937 whole entry) above
Sequence of K-Ras G13C (P01116-2 other isoform, or with tags, fused parts or gaps G13C): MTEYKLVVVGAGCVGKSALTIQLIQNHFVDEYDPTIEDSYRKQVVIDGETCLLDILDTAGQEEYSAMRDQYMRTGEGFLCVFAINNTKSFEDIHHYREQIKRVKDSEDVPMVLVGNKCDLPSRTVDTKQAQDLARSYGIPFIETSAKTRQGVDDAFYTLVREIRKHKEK
Sequence of K-Ras G13C (P62937 whole entry): as the sequence (P62937 whole entry) above
Sequence of KRAS G12D (P01116-2 other isoform, or with tags, fused parts or gaps G12D): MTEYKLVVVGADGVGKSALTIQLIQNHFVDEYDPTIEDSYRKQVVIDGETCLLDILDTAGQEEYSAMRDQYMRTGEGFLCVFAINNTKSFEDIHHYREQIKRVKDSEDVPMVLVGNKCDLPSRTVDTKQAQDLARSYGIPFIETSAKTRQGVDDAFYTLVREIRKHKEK
Sequence of KRAS G12D (P62937 whole entry): as the sequence (P62937 whole entry) above

Structure (SMILES) | IC50 (KRAS G13D) | IC50 (KRAS WT) | IC50 (K-Ras G12C) | IC50 (KRAS G12V) | IC50 (KRAS G12S) | IC50 (NRAS G12C) | IC50 (KRAS G12D) | EC50 [1] [nM] | IC50 (K-Ras G13C)
CCn1c(-c2cnccc2COC)c2c3cc(ccc31)-c1cccc(c1)C[C@H](NC(=O)[C@H](C(C)C)N(C)C(=O)[C@H]1CCN(C(=O)C#CCN(C)C)C1)C(=O)N1CCC[C@H](N1)C(=O)OCC(C)(C)C2 (atropisomer, axis not shown) [Example A120] | 1000 to 10000 nM | 1000 to 10000 nM and > 10000 nM | 100 to 1000 nM and < 10 nM | 1000 to 10000 nM and > 10000 nM | 1000 to 10000 nM and > 10000 nM | 100 to 1000 nM and < 10 nM | 1000 to 10000 nM | < 5000 | 100 to 1000 nM and 1000 to 10000 nM
CCn1c(-c2cccnc2[C@H](C)OC)c2c3cc(ccc31)-c1cc(O)cc(c1)C[C@H](NC(=O)[C@H](C(C)C)N(C)C(=O)[C@H]1CCN(C(=O)/C=C/CN(C)C)C1)C(=O)N1CCC[C@H](N1)C(=O)OCC(C)(C)C2 (atropisomer, axis not shown) [Example A183] | 1000 to 10000 nM and 10 to 100 nM | 1000 to 10000 nM and 10 to 100 nM | 10 to 100 nM and < 10 nM | 100 to 1000 nM and 10 to 100 nM | 1000 to 10000 nM and 10 to 100 nM | 10 to 100 nM and < 10 nM | 1000 to 10000 nM and 10 to 100 nM | < 5000 | 10 to 100 nM and 1000 to 10000 nM
CCn1c(-c2cccnc2[C@H](C)OC)c2c3cc(ccc31)-c1cc(O)cc(c1)C[C@H](NC(=O)[C@H](C(C)C)N(C)C(=O)[C@H]1CCN(C(=O)/C=C/CN3CCOCC3)C1)C(=O)N1CCC[C@H](N1)C(=O)OCC(C)(C)C2 (atropisomer, axis not shown) [Example A184] | 100 to 1000 nM and > 10000 nM | 100 to 1000 nM and > 10000 nM | 100 to 1000 nM and < 10 nM | 1000 to 10000 nM and 10 to 100 nM | 1000 to 10000 nM and 10 to 100 nM | 100 to 1000 nM and < 10 nM | > 10000 nM and 100 to 1000 nM | < 5000 | 100 to 1000 nM and > 10000 nM
CCn1c(-c2cccnc2[C@H](C)OC)c2c3cc(ccc31)-c1cccc(c1)C[C@H](NC(=O)[C@H](C(C)C)N(C)C(=O)[C@H]1CCN(C(=O)/C=C/CN(C)C)C1)C(=O)N1CCC[C@H](N1)C(=O)OCC(C)(C)C2 (atropisomer, axis not shown) [Example A187] | 1000 to 10000 nM and > 10000 nM | 1000 to 10000 nM and > 10000 nM | 10 to 100 nM and 1000 to 10000 nM | 1000 to 10000 nM and > 10000 nM | 1000 to 10000 nM and > 10000 nM | 10 to 100 nM and 1000 to 10000 nM | > 10000 nM | < 5000 | > 10000 nM and 1000 to 10000 nM
CCn1c(-c2cccnc2[C@H](C)OC)c2c3cc(ccc31)-c1cccc(c1)C[C@H](NC(=O)[C@H](C(C)C)N(C)C(=O)[C@H]1CCN(C(=O)C#CCN3CCOCC3)C1)C(=O)N1CCC[C@H](N1)C(=O)OCC(C)(C)C2 (atropisomer, axis not shown) [Example A191] | > 10000 nM | > 10000 nM | 10 to 100 nM and 100 to 1000 nM | 1000 to 10000 nM and > 10000 nM | > 10000 nM | 10 to 100 nM and 1000 to 10000 nM | > 10000 nM | < 5000 | 1000 to 10000 nM and > 10000 nM
C=CC(=O)N1CC[C@H](C(=O)N(C)[C@H](C(=O)N[C@H]2Cc3cc(O)cc(c3)-c3ccc4c(c3)c(c(-c3cccnc3[C@@H](OC)C3CC3)n4CC)CC(C)(C)COC(=O)[C@@H]3CCCN(N3)C2=O)C(C)C)C1 (atropisomer, axis not shown) [Example A206] | 1000 to 10000 nM | 1000 to 10000 nM | 100 to 1000 nM | 100 to 1000 nM | 100 to 1000 nM | 100 to 1000 nM | > 10000 nM | < 5000 | 1000 to 10000 nM
CCn1c(-c2cccnc2[C@H](C)OC)c2c3cc(ccc31)-c1cc(O)cc(c1)C[C@H](NC(=O)[C@H](C(C)C)N(C)C(=O)c1ccc(NC(=O)/C=C/CN(C)C)cn1)C(=O)N1CCC[C@H](N1)C(=O)OCC(C)(C)C2 (atropisomer, axis not shown) [Example A251] | 100 to 1000 nM and 1000 to 10000 nM | 100 to 1000 nM and 1000 to 10000 nM | 10 to 100 nM | 100 to 1000 nM and 1000 to 10000 nM | 100 to 1000 nM and 1000 to 10000 nM | 10 to 100 nM | 1000 to 10000 nM and > 10000 nM | < 5000 | 10 to 100 nM and < 10 nM
